Species: Rattus norvegicus
Experiment: DrugMatrix - Regimen: Daily Repeat
Type: toxicity, organism-based, Sprague-Dawley
Set-up: regimen Daily Repeat, gender Male, age 6-8 weeks
Settings: in vivo, po, route oral GAVAGE, vehicle 100 % WATER; for ABSOLUTE BASOPHIL / ABSOLUTE EOSINOPHIL / ABSOLUTE LYMPHOCYTE / ABSOLUTE MONOCYTE / ABSOLUTE SEGMENTED NEUTROPHIL / BASOPHIL / EOSINOPHIL / ERYTHROCYTE COUNT / HEMATOCRIT / HEMOGLOBIN / LEUKOCYTE COUNT / LYMPHOCYTE / MEAN CORPUSCULAR HEMOGLOBIN / MEAN CORPUSCULAR HEMOGLOBIN CONCENTRATION / MEAN CORPUSCULAR VOLUME / MONOCYTE / NEUTROPHIL / NUCLEATED RED BLOOD CELLS / PLATELET COUNT: tissue Blood; for ALANINE AMINOTRANSFERASE / ALBUMIN / ALKALINE PHOSPHATASE / ASPARTATE AMINOTRANSFERASE / BLOOD UREA NITROGEN / CARBON DIOXIDE / CHLORIDE / CHOLESTEROL / CREATINE PHOSPHOKINASE / CREATININE / GLUCOSE / LACTATE DEHYDROGENASE / LIPASE / PHOSPHORUS / POTASSIUM / SODIUM / TOTAL BILIRUBIN / TOTAL PROTEIN / URIC ACID: tissue Plasma
[1] = 120 mg/kg, 72 h, dose level Low, time 3 day
[2] = 120 mg/kg, 120 h, dose level Low, time 5 day
[3] = 1200 mg/kg, 72 h, dose level High, time 3 day
[4] = 1200 mg/kg, 120 h, dose level High, time 5 day

O=C(O)CNCP(=O)(O)O [GLYPHOSATE]
ABSOLUTE BASOPHIL [1]: 0 CELLS/uL
ABSOLUTE EOSINOPHIL [1]: 153 CELLS/uL
ABSOLUTE LYMPHOCYTE [1]: 11957 CELLS/uL
ABSOLUTE MONOCYTE [1]: 0 CELLS/uL
ABSOLUTE SEGMENTED NEUTROPHIL [1]: 890 CELLS/uL
BASOPHIL [1]: 0%
EOSINOPHIL [1]: 1.33%
ERYTHROCYTE COUNT [1]: 5.56 x10E6/uL
HEMATOCRIT [1]: 35.93%
HEMOGLOBIN [1]: 13.4 G/DL
LEUKOCYTE COUNT [1]: 13 x10E3/uL
LYMPHOCYTE [1]: 92%
MEAN CORPUSCULAR HEMOGLOBIN [1]: 24.1 pg
MEAN CORPUSCULAR HEMOGLOBIN CONCENTRATION [1]: 37.3 G/DL
MEAN CORPUSCULAR VOLUME [1]: 64.57 fL
MONOCYTE [1]: 0%
NEUTROPHIL [1]: 6.67%
NUCLEATED RED BLOOD CELLS [1]: 0 /100WBC
PLATELET COUNT [1]: 1067 x10E3/uL
ALANINE AMINOTRANSFERASE [1]: 56 u/L
ALBUMIN [1]: 4.13 G/DL
ALKALINE PHOSPHATASE [1]: 286.67 u/L
ASPARTATE AMINOTRANSFERASE [1]: 100.67 u/L
BLOOD UREA NITROGEN [1]: 15 mg/dL
CARBON DIOXIDE [1]: 24.67 mmol/L
CHLORIDE [1]: 103.33 MEQ/L
CHOLESTEROL [1]: 75 mg/dL
CREATINE PHOSPHOKINASE [1]: 1135.33 u/L
CREATININE [1]: 0.29 mg/dL
GLUCOSE [1]: 198.67 mg/dL
LACTATE DEHYDROGENASE [1]: 150.67 u/L
LIPASE [1]: 8 u/L
PHOSPHORUS [1]: 14.7 mg/dL
POTASSIUM [1]: 6.43 MEQ/L
SODIUM [1]: 145.93 MEQ/L
TOTAL BILIRUBIN [1]: 0.27 mg/dL
TOTAL PROTEIN [1]: 5.87 G/DL
URIC ACID [1]: 1.73 mg/dL
ABSOLUTE BASOPHIL [2]: 0 CELLS/uL
ABSOLUTE EOSINOPHIL [2]: 327.33 CELLS/uL
ABSOLUTE LYMPHOCYTE [2]: 13510 CELLS/uL
ABSOLUTE MONOCYTE [2]: 0 CELLS/uL
ABSOLUTE SEGMENTED NEUTROPHIL [2]: 1496 CELLS/uL
BASOPHIL [2]: 0%
EOSINOPHIL [2]: 2%
ERYTHROCYTE COUNT [2]: 5.7 x10E6/uL
HEMATOCRIT [2]: 34.73%
HEMOGLOBIN [2]: 13.27 G/DL
LEUKOCYTE COUNT [2]: 15.33 x10E3/uL
LYMPHOCYTE [2]: 88.33%
MEAN CORPUSCULAR HEMOGLOBIN [2]: 23.27 pg
MEAN CORPUSCULAR HEMOGLOBIN CONCENTRATION [2]: 38.23 G/DL
MEAN CORPUSCULAR VOLUME [2]: 60.93 fL
MONOCYTE [2]: 0%
NEUTROPHIL [2]: 9.67%
NUCLEATED RED BLOOD CELLS [2]: 0 /100WBC
PLATELET COUNT [2]: 1299.33 x10E3/uL
ALANINE AMINOTRANSFERASE [2]: 51.33 u/L
ALBUMIN [2]: 4.47 G/DL
ALKALINE PHOSPHATASE [2]: 337.33 u/L
ASPARTATE AMINOTRANSFERASE [2]: 87.33 u/L
BLOOD UREA NITROGEN [2]: 15.67 mg/dL
CARBON DIOXIDE [2]: 25 mmol/L
CHLORIDE [2]: 103.67 MEQ/L
CHOLESTEROL [2]: 64 mg/dL
CREATINE PHOSPHOKINASE [2]: 252 u/L
CREATININE [2]: 0.19 mg/dL
GLUCOSE [2]: 168.33 mg/dL
LACTATE DEHYDROGENASE [2]: 300.67 u/L
LIPASE [2]: 8.67 u/L
PHOSPHORUS [2]: 12.53 mg/dL
POTASSIUM [2]: 6.55 MEQ/L
SODIUM [2]: 145.77 MEQ/L
TOTAL BILIRUBIN [2]: 0.13 mg/dL
TOTAL PROTEIN [2]: 6.1 G/DL
URIC ACID [2]: 1.9 mg/dL
ABSOLUTE BASOPHIL [3]: 0 CELLS/uL
ABSOLUTE EOSINOPHIL [3]: 430 CELLS/uL
ABSOLUTE LYMPHOCYTE [3]: 12770 CELLS/uL
ABSOLUTE MONOCYTE [3]: 0 CELLS/uL
ABSOLUTE SEGMENTED NEUTROPHIL [3]: 3000 CELLS/uL
BASOPHIL [3]: 0%
EOSINOPHIL [3]: 2.67%
ERYTHROCYTE COUNT [3]: 5.53 x10E6/uL
HEMATOCRIT [3]: 35%
HEMOGLOBIN [3]: 13.4 G/DL
LEUKOCYTE COUNT [3]: 16.2 x10E3/uL
LYMPHOCYTE [3]: 79.33%
MEAN CORPUSCULAR HEMOGLOBIN [3]: 24.3 pg
MEAN CORPUSCULAR HEMOGLOBIN CONCENTRATION [3]: 38.3 G/DL
MEAN CORPUSCULAR VOLUME [3]: 63.37 fL
MONOCYTE [3]: 0%
NEUTROPHIL [3]: 18%
NUCLEATED RED BLOOD CELLS [3]: 0 /100WBC
PLATELET COUNT [3]: 1325.33 x10E3/uL
ALANINE AMINOTRANSFERASE [3]: 51.33 u/L
ALBUMIN [3]: 4.17 G/DL
ALKALINE PHOSPHATASE [3]: 418.33 u/L
ASPARTATE AMINOTRANSFERASE [3]: 78.33 u/L
BLOOD UREA NITROGEN [3]: 15.33 mg/dL
CARBON DIOXIDE [3]: 27.33 mmol/L
CHLORIDE [3]: 101 MEQ/L
CHOLESTEROL [3]: 60.33 mg/dL
CREATINE PHOSPHOKINASE [3]: 226.67 u/L
CREATININE [3]: 0.19 mg/dL
GLUCOSE [3]: 167 mg/dL
LACTATE DEHYDROGENASE [3]: 154.67 u/L
LIPASE [3]: 8.67 u/L
PHOSPHORUS [3]: 13.27 mg/dL
POTASSIUM [3]: 6.4 MEQ/L
SODIUM [3]: 145.67 MEQ/L
TOTAL BILIRUBIN [3]: 0.1 mg/dL
TOTAL PROTEIN [3]: 5.83 G/DL
URIC ACID [3]: 1.47 mg/dL
ABSOLUTE BASOPHIL [4]: 0 CELLS/uL
ABSOLUTE EOSINOPHIL [4]: 318.67 CELLS/uL
ABSOLUTE LYMPHOCYTE [4]: 13433.33 CELLS/uL
ABSOLUTE MONOCYTE [4]: 0 CELLS/uL
ABSOLUTE SEGMENTED NEUTROPHIL [4]: 2014.67 CELLS/uL
BASOPHIL [4]: 0%
EOSINOPHIL [4]: 2%
ERYTHROCYTE COUNT [4]: 5.83 x10E6/uL
HEMATOCRIT [4]: 36%
HEMOGLOBIN [4]: 13.47 G/DL
LEUKOCYTE COUNT [4]: 15.77 x10E3/uL
LYMPHOCYTE [4]: 84.67%
MEAN CORPUSCULAR HEMOGLOBIN [4]: 23.1 pg
MEAN CORPUSCULAR HEMOGLOBIN CONCENTRATION [4]: 37.47 G/DL
MEAN CORPUSCULAR VOLUME [4]: 61.7 fL
MONOCYTE [4]: 0%
NEUTROPHIL [4]: 13.33%
NUCLEATED RED BLOOD CELLS [4]: 0 /100WBC
PLATELET COUNT [4]: 1271.67 x10E3/uL
ALANINE AMINOTRANSFERASE [4]: 65.33 u/L
ALBUMIN [4]: 4.43 G/DL
ALKALINE PHOSPHATASE [4]: 391.33 u/L
ASPARTATE AMINOTRANSFERASE [4]: 82.33 u/L
BLOOD UREA NITROGEN [4]: 16.33 mg/dL
CARBON DIOXIDE [4]: 27.33 mmol/L
CHLORIDE [4]: 102.67 MEQ/L
CHOLESTEROL [4]: 68.67 mg/dL
CREATINE PHOSPHOKINASE [4]: 204.33 u/L
CREATININE [4]: 0.15 mg/dL
GLUCOSE [4]: 177 mg/dL
LACTATE DEHYDROGENASE [4]: 87 u/L
LIPASE [4]: 9 u/L
PHOSPHORUS [4]: 12.33 mg/dL
POTASSIUM [4]: 6.56 MEQ/L
SODIUM [4]: 147.4 MEQ/L
TOTAL BILIRUBIN [4]: 0.13 mg/dL
TOTAL PROTEIN [4]: 6.03 G/DL
URIC ACID [4]: 1.9 mg/dL
